Data taken from patent EP1388586A2, “Identification of broadly reactive DR restricted epitopes” (priority 1998, dated 1999).
Read-outs that look alike come from different tables or passages of the source. Square brackets hold non-standard residues; d marks the D form. Ends that are not written are not given here. Peptide text beside a SMILES is read from it.

Columns and labels:
DRB1*0101 (DR1) = target: T1, DRB1*0101 (DR1) (Homo sapiens, UniProt P01903+P01911, A100R/D57E/F55L/F60I/F76Y/I96L/L162R/M171V/P40L/Q125E/R42F/V115G/Y59C); assay: Class II peptide-binding assay, DR1;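 further: competition assay: unlabeled test peptides inhibit binding of a radiolabeled probe peptide to purified DR, with half-maximal inhibition taken as an approximate dissociation constant Kd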
T1 construct: used as sources of human HLA class II molecules; endogenous in cells; host or cells: LG2 (EBV-transformed homozygous B cell line)

DRB5*0101 (DR2w2a) = target: T2, DRB5*0101 (DR2w2a) (Homo sapiens, UniProt P01903+Q30154); assay: Class II peptide-binding assay, DR2w2a (DR2w2B2); settings: read-out: DR2w2B2 nM (In IC50 Format); purified HLA DR2w2β2;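 further: competitive binding assay: unlabeled peptide inhibiting binding of a radiolabeled probe peptide to purified DR molecules at pH 7.0, IC50 approximating Kd, lower means stronger binding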
T2 construct: used as sources of human HLA class II molecules; endogenous in cells; host or cells: GM3107 (EBV-transformed homozygous B cell line)

DRB1*0401 (DR4w4) = target: T3, DRB1*0401 (DR4w4) (Homo sapiens, UniProt P01903+P01911, A100K/A169T/F76Y/I96L/K127E/L162R/M171V/N62H/P40V/Q125Y/R42H/S133A/S149N/S66Y/V115G/V209L/W38E); assay: Class II peptide-binding assay, DR4w4;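 further: unlabeled test peptides compete with a radiolabeled probe peptide for binding to affinity-purified HLA-DR, with DR amount titrated to capture a small fraction of label, IC50 approximating Kd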
T3 construct: used as sources of human HLA class II molecules; endogenous in cells; host or cells: PREISS (EBV-transformed homozygous B cell line)
Protocol: Class II peptide-binding assays. […] These assays were chosen as to be representative of the most common DR alleles.
Radiolabeled peptides were iodinated using the chloramine-T method. […] In appropriate stoichiometric conditions, the IC50 of an unlabeled test peptide to the purified DR is a reasonable approximation of the affinity of interaction (Kd). Peptides were tested in two to four completely independent experiments. […] Final detergent concentration in the incubation mixture was 0.05% Nonidet P-40. Assays were performed at pH 7.0 with the exception of DR3, which was performed at pH 4.5, and DRw53, which was performed at pH 5.0.
All subsequent inhibition and direct binding assays were the performed using these class II concentrations.

DRB10404 (DR4w14) = target: T4, DRB10404 (DR4w14) (Homo sapiens, UniProt P01903+P01911, A100R/A169T/F76Y/I96L/K127E/L162R/M171V/N62H/P40V/Q125Y/R42H/S133A/S149N/S66Y/V209L/W38E); assay: Class II peptide-binding assay, DR4w14; settings: read-out: DR4w14 nM (In IC50 Format); purified HLA DR4w14;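 further: unlabeled peptides compete with a radiolabeled probe for binding to affinity-purified HLA-DR, neutral pH, class II amount titrated to bind a small fraction of label, IC50 approximates Kd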
T4 construct: used as sources of human HLA class II molecules; endogenous in cells; host or cells: BIN40 (EBV-transformed homozygous B cell line)

DRB1*1101 (DR5w11) = target: T5, DRB1*1101 (DR5w11) (Homo sapiens, UniProt P01903+P01911, A100R/A169T/A87E/I96F/K41T/L162R/M171V/P40S/Q125H/Q178H/Q39Y/Q99D/R42S/S66Y/T262R/V115G/W38E); assay: Class II peptide-binding assay, DR5w11;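 further: competition by unlabeled test peptide against iodinated probe peptide binding to affinity-purified HLA-DR, class II amount titrated beforehand, half-maximal inhibitory concentration read as approximate Kd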
T5 construct: used as sources of human HLA class II molecules; endogenous in cells; host or cells: SWEIG (EBV-transformed homozygous B cell line)
T5 sequence (P01903 26-254, other chains not shown): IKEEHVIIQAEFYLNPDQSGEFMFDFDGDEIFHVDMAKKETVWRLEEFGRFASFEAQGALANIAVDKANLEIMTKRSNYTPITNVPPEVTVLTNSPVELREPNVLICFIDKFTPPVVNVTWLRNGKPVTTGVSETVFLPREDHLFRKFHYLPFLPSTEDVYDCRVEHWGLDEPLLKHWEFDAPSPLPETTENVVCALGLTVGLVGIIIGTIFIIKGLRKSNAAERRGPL

DRB1*0701 (DR7) = DRB1*0701 (DR7) (Homo sapiens, UniProt P01903+P01911, A100R/A102G/A103Q/D57E/D86V/E43K/F76Y/K127E/L162R/M171V/P40G/Q125H/Q99D/R33Q/R42Y/R54Q/S133A/S66F/T210M/V115G/Y107V/Y59L/Y89S); assay: Class II peptide-binding assay, DR7; settings: read-out: DR7 nM (In IC50 Format); purified HLA DR7;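 further: unlabeled peptides compete with an iodinated probe peptide for binding to affinity-purified HLA-DR at neutral pH, DR amount titered to bind a small tracer fraction, IC50 approximating Kd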
[1] = read-out: DR1 nM (In IC50 Format), purified HLA DR1
[2] = read-out: DR4w4 nM (In IC50 Format), purified HLA DR4w4
[3] = read-out: DR5w11 nM (In IC50 Format), purified HLA DR5w11

Compound	IC50 (DRB1*0101 (DR1); [1]) [nM]	IC50 (DRB5*0101 (DR2w2a)) [nM]	IC50 (DRB1*0401 (DR4w4); [2]) [nM]	IC50 (DRB10404 (DR4w14)) [nM]	IC50 (DRB1*1101 (DR5w11); [3]) [nM]	IC50 (DRB1*0701 (DR7)) [nM]	IC50 (DRB1*0401 (DR4w4); Table VIII, page 2, read-out: In IC50 Format DR4w4 nM) [nM]	IC50 (DRB1*1101 (DR5w11); Table VIII, page 2, read-out: In IC50 Format DR5w11 nM) [nM]	IC50 (DRB1*0101 (DR1); Table VIII, page 2, read-out: In IC50 Format DR1) [nM]
YARFQSQTPLKAKT-NH2 [Peptide 717.37]	2.5	64.5	9	67.5	8	–	–	–	–
CC(C)C[C@H](NC(=O)[C@@H](NC(=O)[C@@H](NC(=O)[C@H](CCC(N)=O)NC(=O)[C@H](CCCNC(=N)N)NC(=O)[C@H](CCC(N)=O)NC(=O)[C@H](Cc1ccccc1)NC(=O)[C@H](CCCNC(=N)N)NC(=O)[C@H](C)NC(=O)[C@H](N)Cc1ccc(O)cc1)[C@@H](C)O)[C@@H](C)O)C(=O)N[C@@H](CCCCN)C(=O)N[C@@H](C)C(=O)N[C@@H](C)C(=O)N[C@H](C)C(N)=O [Peptide 781.09] (H-[dY]ARFQRQTTLKAA[dA]-NH2)	2.8	37.7	2	7.4	7.4	–	–	–	–
KSNTATSATQRLANSLVH [Peptide 735.01]	313	–	441	352	1330	12500	–	–	–
YARFQSQTTLKAET-NH2 [Peptide 717.26]	35.7	–	18	20	–	4170	–	–	–
CC[C@H](C)[C@H](NC(=O)[C@H](CCSC)NC(=O)[C@H](Cc1c[nH]c2ccccc12)NC(=O)[C@H](CS)NC(=O)[C@H](CCCCN)NC(=O)[C@@H](NC(=O)[C@H](CCSC)NC(=O)[C@@H](NC(=O)[C@H](CCSC)NC(=O)[C@H](Cc1ccc(O)cc1)NC(=O)[C@@H](NC(=O)[C@@H](N)CC(=O)O)C(C)C)[C@@H](C)CC)C(C)C)C(=O)N[C@@H](CC(=O)O)C(=O)N[C@@H](CO)C(=O)N[C@@H](CCC(=O)O)C(=O)O [Peptide 39.0277]	–	–	–	–	–	–	790	909	–
C[C@H](NC(=O)[C@H](C)NC(=O)[C@H](C)NC(=O)[C@H](C)NC(=O)[C@H](Cc1ccc(O)cc1)NC(=O)[C@H](C)NC(=O)[C@@H](C)N)C(=O)N[C@@H](C)C(=O)N[C@@H](C)C(=O)N[C@@H](CCCCN)C(=O)N[C@@H](C)C(=O)N[C@@H](C)C(=O)N[C@H](C)C(N)=O [Peptide 762.01] (H-[dA]AYAAAAAAKAA[dA]-NH2)	1.7	27.4	7.1	–	46.8	1670	–	–	–
LMAMGITDVFSSSANLSGI [Peptide 705.08]	417	–	14.1	–	2500	403	–	–	–
CC(C)C[C@H](NC(=O)[C@@H](NC(=O)[C@@H](NC(=O)[C@H](CCC(N)=O)NC(=O)[C@H](CCCCN)NC(=O)[C@H](CC(=O)O)NC(=O)[C@H](Cc1ccccc1)NC(=O)[C@@H](CCCNC(=N)N)NC(=O)[C@H](C)NC(=O)[C@H](N)Cc1ccc(O)cc1)[C@@H](C)O)[C@@H](C)O)C(=O)N[C@@H](CCCCN)C(=O)N[C@@H](C)C(=O)N[C@@H](C)C(=O)N[C@H](C)C(=O)O [Peptide 781.19] (H-[dY]A[dR]FDKQTTLKAA[dA]-OH)	60.2	3330	8.1	96.6	47.5	–	–	–	–
ASQKRPSQRSKYLATAST [Peptide 765.011]	313	2500	321	–	4440	961	–	–	–
YARFQFQTTLKAKT-NH2 [Peptide 717.46]	4.5	40	–	2.6	3.7	4170	–	–	–
QPDVRPQPPSPREGP [Peptide 39.0280]	–	–	–	–	–	–	–	–	7140
